Data as given in publication PMC11121837, “Impact of Nitric Oxide-Release Kinetics on Antifungal Activity” (Journal of Fungi, 2024).
Converted amounts (≈) assume the structure as drawn.

How the values were obtained:
[1] = Characterization of NO release (chemiluminescence nitric oxide analyzer); format: physicochemical
Candida albicans = assay: Susceptibility assay (MIC, broth microdilution, CLSI M27); format: cell-based; details: for MIC: 24 h; for NO dose at MIC: calculated NO dose at MIC
Candida auris = assay: as above; format: cell-based; details: for MIC / NO dose at MIC: Candidozyma auris; for MIC: 24 h; for NO dose at MIC: calculated NO dose at MIC
Cryptococcus neoformans = assay: as above; format: cell-based; details: for MIC / NO dose at MIC: Cryptococcus neoformans; for MIC: 72 h; for NO dose at MIC: calculated NO dose at MIC
[2] = test system: Aspergillus fumigatus spores; assay: Susceptibility assay for sporulating fungi (MIC, EUCAST E.Def.9.4); format: cell-based
[3] = test system: C. albicans (ATCC MYA-2876); assay: Checkerboard assay of NO donors with antifungals; format: cell-based, Candida albicans
C. auris (ATCC MYA-5001) = assay: Checkerboard assay of NO donors with antifungals; format: cell-based, Candida auris
[4] = test system: C. neoformans (ATCC 208821); assay: Checkerboard assay of NO donors with antifungals; format: cell-based, Cryptococcus neoformans
C. auris (MYA-5001) = format: cell-based, Candida auris
[5] = test system: C. neoformans (ATCC208821); format: cell-based, Cryptococcus neoformans
[6] = test system: MatTek EpiAirway tissue (AIR-100); assay: cells; format: cell-based; details: Homo sapiens, 24 h, read-out: IC50 (concentration needed to inhibit tissue viability by 50%)
[7] = phosphate-buffered saline 10 mM, pH 7.4, 37 °C
[8] = ATCC14053, Candida albicans ATCC 14053
[9] = ATCC18804, Candida albicans ATCC 18804
[10] = Cryptococcus neoformans ATCC MYA-4566
[11] = Cryptococcus neoformans ATCC MYA-4567
[12] = NO donor combined with 5-fluorocytosine
[13] = NO donor combined with amphotericin B
[14] = NO donor combined with butenafine
[15] = NO donor combined with caspofungin
[16] = NO donor combined with fluconazole
[17] = NO donor combined with miconazole

With `NCCN(CCN)/[N+]([O-])=N/O` [DETA/NO, diethylenetriamine/NO] the “[NO]t, total NO released over full duration” value ([1]; pH 7.4) was 6.3 ± 0.6 µmol/mg, the “[NO]max, maximum instantaneous NO concentration” value [1, 7] was 735 ± 94 ppb mg^−1 and the “td, duration of NO release” value [1, 7] was 107.6 ± 19.9 h. For the same compound, the MIC (Candida albicans; [8]) was 625 µg/mL (≈ 3830 µM), the NO dose at MIC (Candida albicans; [8]) was 117 µg/mL and the MIC (Candida albicans; [9]) was 625 µg/mL (≈ 3830 µM). For the same compound, the NO dose at MIC (Candida albicans; [9]) was 117 µg/mL, the “Selectivity Index (IC50 AIR-100 / MIC)” value (Candida albicans; C. albicans ATCC 14053) was 77 and the “Selectivity Index (IC50 AIR-100 / MIC)” value (Candida albicans; C. albicans ATCC 18804) was 77. For the same compound, the “Selectivity Index (IC50 AIR-100 / MIC)” value (Candida albicans; C. albicans ATCC MYA-2876) was 383, the MIC (Candida albicans; Candida albicans ATCC MYA-2876) was 125 µg/mL (≈ 766 µM) and the NO dose at MIC (Candida albicans; Candida albicans ATCC MYA-2876) was 23.5 µg/mL. For the same compound, the “Selectivity Index (IC50 AIR-100 / MIC)” value (Candida auris; C. auris ATCC MYA-5000) was 77, the “Selectivity Index (IC50 AIR-100 / MIC)” value (Candida auris; C. auris ATCC MYA-5001) was 1595 and the “Selectivity Index (IC50 AIR-100 / MIC)” value (Candida auris; C. auris ATCC MYA-5003) was 154. It also gave an MIC (Candida auris; Candida auris ATCC MYA-5000) of 625 µg/mL (≈ 3830 µM), an MIC (Candida auris; Candida auris ATCC MYA-5001) of 30 µg/mL (≈ 184 µM) and an MIC (Candida auris; Candida auris ATCC MYA-5003) of 310 µg/mL (≈ 1900 µM). For the same compound, the NO dose at MIC (Candida auris; Candida auris ATCC MYA-5000) was 117 µg/mL, the NO dose at MIC (Candida auris; Candida auris ATCC MYA-5001) was 5.65 µg/mL and the NO dose at MIC (Candida auris; Candida auris ATCC MYA-5003) was 58.4 µg/mL. The “Selectivity Index (IC50 AIR-100 / MIC)” value (Cryptococcus neoformans; C. neoformans ATCC 208821) was 191, the “Selectivity Index (IC50 AIR-100 / MIC)” value (Cryptococcus neoformans; C. neoformans ATCC MYA-4566) was 613 and the “Selectivity Index (IC50 AIR-100 / MIC)” value (Cryptococcus neoformans; C. neoformans ATCC MYA-4567) was 154. The MIC (Cryptococcus neoformans; [10]) was 78 µg/mL (≈ 478 µM), the MIC (Cryptococcus neoformans; [11]) was 310 µg/mL (≈ 1900 µM) and the MIC (Cryptococcus neoformans; ATCC208821, 72 h, Cryptococcus neoformans ATCC 208821) was 250 µg/mL (≈ 1530 µM). The NO dose at MIC (Cryptococcus neoformans; ATCC208821, Cryptococcus neoformans ATCC 208821) was 47 µg/mL, the NO dose at MIC (Cryptococcus neoformans; [10]) was 14.7 µg/mL and the NO dose at MIC (Cryptococcus neoformans; [11]) was 58.4 µg/mL. The “Selectivity Index (IC50 AIR-100 / MIC)” value ([2]; A. fumigatus ATCC 1022) was 150, the MIC ([2]; ATCC1022, Aspergillus fumigatus ATCC 1022 spores) was 320 µg/mL (≈ 1960 µM) and the NO dose at MIC ([2]; ATCC1022, Aspergillus fumigatus ATCC 1022 spores, calculated NO dose at MIC) was 60.5 µg/mL. For the same compound, the checkerboard classification [3, 12] was “I (indifferent (I))”, the “∑FIC” value [3, 12] was no less than 1 and the checkerboard classification [3, 13] was “I (indifferent (I))”. For the same compound, the “∑FIC” value [3, 13] was no less than 1, the checkerboard classification [3, 14] was “I (indifferent (I))” and the “∑FIC” value [3, 14] was no less than 1. The checkerboard classification [3, 15] was “I (indifferent (I))”, the “∑FIC” value [3, 15] was no less than 1 and the checkerboard classification [3, 16] was “I (indifferent (I))”. For the same compound, the “∑FIC” value [3, 16] was no less than 1, the checkerboard classification [3, 17] was “S (Synergistic (S))” and the “∑FIC” value [3, 17] was 0.375. For the same compound, the checkerboard classification (C. auris (ATCC MYA-5001); [12]) was “I (indifferent (I))”, the “∑FIC” value (C. auris (ATCC MYA-5001); [12]) was no less than 1 and the checkerboard classification (C. auris (ATCC MYA-5001); [13]) was “I (indifferent (I))”. The “∑FIC” value (C. auris (ATCC MYA-5001); [13]) was no less than 1, the checkerboard classification (C. auris (ATCC MYA-5001); [14]) was “I (indifferent (I))” and the “∑FIC” value (C. auris (ATCC MYA-5001); [14]) was no less than 1. For the same compound, the checkerboard classification (C. auris (ATCC MYA-5001); [15]) was “I (indifferent (I))”, the “∑FIC” value (C. auris (ATCC MYA-5001); [15]) was no less than 1 and the checkerboard classification (C. auris (ATCC MYA-5001); [16]) was “I (indifferent (I))”. For the same compound, the “∑FIC” value (C. auris (ATCC MYA-5001); [16]) was no less than 1, the checkerboard classification (C. auris (ATCC MYA-5001); [17]) was “I (indifferent (I))” and the “∑FIC” value (C. auris (ATCC MYA-5001); [17]) was no less than 1. The checkerboard classification [4, 12] was “I (indifferent (I))”, the “∑FIC” value [4, 12] was no less than 1 and the checkerboard classification [4, 13] was “I (indifferent (I))”. The “∑FIC” value [4, 13] was no less than 1, the checkerboard classification [4, 14] was “A (additive (A))” and the “∑FIC” value [4, 14] was 0.500. For the same compound, the checkerboard classification [4, 15] was “I (indifferent (I))”, the “∑FIC” value [4, 15] was no less than 1 and the checkerboard classification [4, 16] was “I (indifferent (I))”. The “∑FIC” value [4, 16] was no less than 1, the checkerboard classification [4, 17] was “A (additive (A))” and the “∑FIC” value [4, 17] was 0.562. For the same compound, the “change in MIC or MFCs after serial passaging” value (C. auris (MYA-5001)) was “no change”, the “change in MIC or MFCs after serial passaging” value [5] was “no change” and the IC50 [6] was 48 mg/mL (≈ 294000 µM).
